# Data from patent publication US20260218197A1, “EXTRACELLULAR VESICLE SECRETION REDUCING AGENT FOR REDUCING EXTRACELLULAR VESICLE SECRETION, AND USE OF THE SAME” (THEORIA SCIENCE INC., priority 2020, published 2026).
# Experiments:
# PSAT1 = PSAT1 gene (qPCR) and protein (Western blotting) expression in transformants; assay type: cell-based, human; settings: HCT116 and A549 transformants
# Method: In a 6-well plate, 2 mL of the cancer cell suspension was seeded at 1.0×10^5 cells/well and incubated for 24 hours. Thereafter, 10 nmol/L of the intended nucleic acid molecules were added thereto, and the cells were transfected with the nucleic acid molecules using a transfection reagent (product name: DharmaFECT Transfection Reagent 1). The nucleic acid molecules used were the above-described miRNA and the above-described siRNA. After the incubation for 24 hours, the medium was replaced with the above-described advanced RPMI 1640 medium or advanced DMEM medium containing the antibiotic-antimycotic agent and 2 mmol/L-glutamine (Gibco). 48 hours after the replacement, total RNA was extracted, and the expression of the gene of interest was measured by qPCR. […]
# First, expression of the PSAT1 gene was detected in the above-described transformants (miR-891b) and the control transformants (NC) therefor. Then, assuming that the expression levels in the transformants (NC) were 1, the relative values of the expression levels in the respective transformants (miR-891b) were determined. […] Also, for the transformants (miR-891b) and the control transformants (NC), the PSAT1 protein expression was detected by Western blotting. As a control, β-actin was also detected. […]
# [1] = system: colorectal cancer cells HCT116; experiment: CD63 immunofluorescence / coimmunostaining (intracellular EV accumulation); assay type: cell-based, human; settings: HCT116 transformants
# Method: (§1) Colorectal cancer cells HCT116 and lung cancer cells A549 were transfected with siRNA (siPSAT1) in the same manner as in the item (2) in Example A1, and EV biogenesis after PSAT1 silencing was examined. For the respective silenced transformants, CD63 and PSAT1 were examined by immunofluorescence.
# (§2) Further, coimmunostaining of the EV marker CD63 and also an early endosome marker EEA1 or a late endosome marker Rab7 was conducted for the PSAT1-silenced transformants. As a result, no overlap was observed between EEA1 and CD63 in either the PSAT1-silenced transformants or the negative control transformants. […] On this account, the CD63 single-positive area was measured based on the intensity. […] This confirmed that EVs had accumulated in the cells.
# (§3) Specifically, the test was performed in the following manner. Colorectal cancer cells HCT116 and lung cancer cells A549 were each seeded in a 6-well plate at 1.5×10^5 cells/well (Day 0), and incubated for 24 hours in a medium (DMEM with 10% FBS, 1×anti-anti medium). After the incubation (Day 1), the above-described medium was removed, and thereafter, a serine-deficient medium and an inhibitor solution were added to the wells. The inhibitor solution was prepared by dissolving NCT-503 in DMSO, and the concentration of the inhibitor per well was set to 2.5 μmol/L. Then, after another 48 hours of incubation (Day 3), the medium in the wells was collected and the cells in the wells were counted. As negative controls (NC), the test was performed in the same manner, except that DMSO was added instead of the inhibitor solution.
# (§4) EVs accumulated in the cells were analyzed in the following manner. Specifically, the collected cells were immunostained, the CD63 single-positive area was measured based on the fluorescence intensity, and the fluorescence intensity measured in the area was divided by the number of nuclei to determine the amount of EVs accumulated in each cell. On the other hand, secreted EVs were collected from the collected medium and then subjected to the NTA. In the NTA, the amount of secreted EVs was determined as a relative value calculated assuming that the amount of the secreted EVs in the negative control was 1.
# lung cancer cells A549 [2] = experiment: as above; assay type: cell-based, human; settings: A549 transformants
# Method: as §1, §2, §3, §4
# [3] = system: colorectal cancer cells HCT116; experiment: Amount of secreted EVs by the ExoScreen method; assay type: cell-based, human; settings: HCT116 transformants, CMs and EV fractions, compared with transformants (NC)
# Method: (§5) EV detection was performed using an AlphaLISA reagent (Perkin Elmer) composed of AlphaScreen streptavidin-coated donor beads (6760002), AlphaLISA unconjugated acceptor beads (6062011), and an AlphaLISA universal buffer (AL001F), a 96-well half-area white plate (6005560, Perkin Elmer), and a detection device EnSpire Alpha 2300 Mutilabel plate reader (Perkin Elmer). Specifically, the EV detection was performed as follows. Each well of the plate was filled with 5 μL of EVs or 10 μL of CM (cell culture supernatant), 10 μL of a 5 nmol/L biotinylated antibody solution prepared using the above-described buffer, and 10 μL of 50 µg/mL AlphaLISA acceptor bead-conjugated antibody. […] Next, luminescence in the wells of the plate was measured using the detection device with the excitation wavelength set to 680 nm and the emission detection wavelength set to 615 nm. […]
# (§6) In a 6-well plate, 2 mL of the cancer cell suspension was seeded at 1.0×10^5 cells/well and incubated for 24 hours. […] 48 hours after the replacement, total RNA was extracted, and the expression of the gene of interest was measured by qPCR.
# (§7) Colorectal cancer cells HCT116 and lung cancer cells A549 were each transfected with miR-891b. […] Then, according to the ExoScreen method described above, the amounts of the secreted EVs were measured by measuring the signal intensities. […]
# lung cancer cells A549 [4] = experiment: Amount of secreted EVs by the ExoScreen method; assay type: cell-based, human; settings: A549 transformants, CMs and EV fractions, compared with transformants (NC)
# Method: as §5, §6, §7
# [5] = system: 3′ UTR of the human PSAT1 mRNA; experiment: Dual-Luciferase reporter assay with PSAT1 3′ UTR in HEK293 cells; assay type: cell-based; settings: 48 hours after transfection
# Method: Thus, the effect of miR-891b was examined using the wild-type PSAT1 gene in which the above-described 7-base region in the 3′ UTR is the wild-type sequence (SEQ ID NO: 3: AAGTTGC) and a mutant-type PSAT1 gene in which the above-described 7-base region in the 3′ UTR is a mutated sequence (SEQ ID NO: 4: TTCAACG). Specifically, the following experiment was performed. The wild-type PSAT1 gene or the mutant-type PSAT1 gene was subcloned into a plasmid vector psiCHECK2, and human embryonic kidney cells (HEK293 cells) were transfected with this recombinant vector together with miR-891b or the negative control miRNA using Lipofectamine 3000. 48 hours after the transfection, the luciferase activity of the transformants was quantified using a plate reader according to the operating procedure of a Dual-Luciferase Reporter Assay System.
# The results obtained are shown in (D) of FIG. 3.
substance,measurement,setting,value
"miR-891b: nucleic acid molecule miRNA, SEQ ID NO: 1: GCAACUUACCUGAGUCAUUGA (Product No. 4464066, Ambion) (listed as RNA, chemistry not given here)",PSAT1 protein expression,"PSAT1; Western blotting, vs transformants (NC)",reduced
same,PSAT1 gene expression,PSAT1; relative to transformants (NC),reduced
same,CD63 (EV marker) in cytoplasm by immunofluorescence,[1],accumulation of CD63
same,CD63 (EV marker) in cytoplasm by immunofluorescence,lung cancer cells A549 [2],accumulation of CD63
same,relative value of the amount of secreted EVs (ExoScreen method),[3],significantly lower
same,relative value of the amount of secreted EVs (ExoScreen method),lung cancer cells A549 [4],significantly lower
same,PSAT1 expression level (relative luciferase activity),[5]; mutated sequence in miR-891b recognition region,did not reduce
same,PSAT1 expression level (relative luciferase activity),[5]; wild-type PSAT1 3′ UTR sequence,significantly reduced
